From US9221791B2, “Metalloenzyme inhibitor compounds” (Viamet Pharmaceuticals, Inc., priority 2011, dated 2015)
In brackets after ≈: the same amount, converted by molar mass.

Tested on: Septoria tritici (ATCC 26517)
Assay: Minimum Inhibitory Concentration (MIC) (Septoria tritici), CLSI-based microdilution
Assay type: cell-based
Settings: S. tritici ATCC 26517, 22° C. for seven days, 50% reduction in growth; for MIC: Zymoseptoria tritici, ATCC26517, 168 h, read-out: Septoria Rating (MIC)
Procedure: C. Minimum Inhibitory Concentration (MIC) (Septoria tritici)
Compounds of the present disclosure were assessed for their ability to inhibit the growth of a common strain of the fungal plant pathogen Septoria tritici (ATCC 26517) using a procedure based on a Clinical and Laboratory Standards Institute (CLSI) microdilution assay protocol for filamentous fungi.
Stock solutions of the test compounds and standards were prepared in DMSO at 6400 μg/mL. Each stock solution was used to prepare a 2-fold dilution series ranging from 16 to 0.016 μg/mL (total of 11 compound concentrations) in RPMI-1640 (Roswell Park Memorial Institute) medium containing 3-(N-morpholino)propanesulfonic acid (MOPS) buffer and 2% DMSO. A 100 μL aliquot of the dilutions was added to columns 1 (16 μg/mL compound) through 11 (0.016 μg/mL compound) of a 96-well microtiter plate. This format was replicated in a second row of the microtiter plate. Thus, each microtiter plate could include 11 concentrations of four test or control compounds replicated twice. A 100 μL aliquot of RPMI-1640/MOPS/2% DMSO medium was added to column 12 (no compound control) of the microtiter plate.
A fresh culture of S. tritici was used to prepare a solution of approximately 5×10^4 colony-forming units per milliliter (cfu/mL) in RPMI/MOPS medium without DMSO. A 100 µL aliquot of this solution was added to all 96 wells in the microtiter plate. […] The assay plates were incubated at 22° C. for seven days in the dark without shaking.
In each case of Table 3 the Septoria rating scale is as follows: […]

Q: `OC(Cn1cnnn1)(c1ccc(F)cc1F)C(F)(F)c1cc(F)ccn1` (single isomer, unassigned) [ent-13, 2-(2,4-Difluorophenyl)-1,1-difluoro-1-(4-fluoropyridin-2-yl)-3-(1H-tetrazol-1-yl)propan-2-ol] was tested. Which MIC did it give?
A: 1.5 µg/mL (≈ 4.04 µM)

Q: For `OC(Cn1cnnn1)(c1ccc(F)cc1F)C(F)(F)c1ccc(-c2ccc(Cl)nc2)cn1` (stereo not drawn) [30(+), 1-(6′-Chloro-[3,3′-bipyridin]-6-yl)-2-(2,4-difluorophenyl)-1,1-difluoro-3-(1H-tetrazol-1-yl)propan-2-ol], which “Septoria Rating (MIC)” value is on record?
A: B (>1.5-1.5)

Q: For `OC(Cn1cnnn1)(c1ccc(F)cc1F)C(F)(F)c1ccc(-c2ccc(F)nc2)cn1` (stereo not drawn) [31(+), 2-(2,4-Difluorophenyl)-1,1-difluoro-1-(6′-fluoro-[3,3′-bipyridin]-6-yl)-3-(1H-tetrazol-1-yl)propan-2-ol], which “Septoria Rating (MIC)” value is on record?
A: A (≦0.5)

Q: For `N#C/C=C/c1ccc(C(F)(F)C(O)(Cn2cnnn2)c2ccc(F)cc2F)nc1` (centres unmarked) [Compound 3, (E)-3-(6-(2-(2,4-Difluorophenyl)-1,1-difluoro-2-hydroxy-3-(1H-tetrazol-1-yl)propyl)pyridin-3-yl)acrylonitrile], which MIC is on record?
A: 1.5 µg/mL (≈ 3.71 µM)

Q: With `CCOC(=O)CCc1ccc(C(F)(F)C(O)(Cn2cnnn2)c2ccc(F)cc2F)nc1` (centres unmarked) [Compound 5, Ethyl 3-(6-(2-(2,4-difluorophenyl)-1,1-difluoro-2-hydroxy-3-(1H-tetrazol-1-yl)propyl)pyridin-3-yl)propanoate] as the compound, how does the MIC read?
A: ≤ 0.5 µg/mL

Q: How did the MIC turn out when `CC(=O)/C=C/c1ccc(C(F)(F)C(O)(Cn2cnnn2)c2ccc(F)cc2F)nc1` (centres unmarked) [Compound 7, (E)-4-(6-(2-(2,4-Difluorophenyl)-1,1-difluoro-2-hydroxy-3-(1H-tetrazol-1-yl)propyl)pyridin-3-yl)but-3-en-2-one] was run?
A: 1.5 to 4 µg/mL (≈ 3.56 to 9.49 µM)

Q: How did the MIC turn out when `CC(=O)CCc1ccc(C(F)(F)C(O)(Cn2cnnn2)c2ccc(F)cc2F)nc1` (centres unmarked) [Compound 8, 4-(6-(2-(2,4-Difluorophenyl)-1,1-difluoro-2-hydroxy-3-(1H-tetrazol-1-yl)propyl)pyridin-3-yl)butan-2-one] was run?
A: 1.5 µg/mL (≈ 3.54 µM)

Q: With `OC(Cn1cnnn1)(c1ccc(F)cc1F)C(F)(F)c1ccc(-n2nccn2)cn1` (centres unmarked) [Compound 9, 1-(5-(2H-1,2,3-Triazol-2-yl)pyridin-2-yl)-2-(2,4-difluorophenyl)-1,1-difluoro-3-(1H-tetrazol-1-yl)propan-2-ol] as the compound, how does the MIC read?
A: 1.5 to 4 µg/mL (≈ 3.57 to 9.52 µM)

Q: For `OC(Cn1cnnn1)(c1ccc(Cl)cc1F)C(F)(F)c1ccccn1` (centres unmarked) [Compound 11, 2-(4-Chloro-2-fluorophenyl)-1,1-difluoro-1-(pyridin-2-yl)-3-(1H-tetrazol-1-yl)propan-2-ol], which MIC is on record?
A: 1.5 to 4 µg/mL (≈ 4.06 to 10.8 µM)

Q: `OC(Cn1cnnn1)(c1ccc(F)cc1F)C(F)(F)c1ccc(Cl)cn1` (centres unmarked) [Compound 12, 1-(5-Chloropyridin-2-yl)-2-(2,4-difluorophenyl)-1,1-difluoro-3-(1H-tetrazol-1-yl)propan-2-ol] was tested. Which MIC did it give?
A: 1.5 µg/mL (≈ 3.87 µM)

Q: How did the MIC turn out when `OC(Cn1cnnn1)(c1ccc(F)cc1F)C(F)(F)c1cc(Cl)ccn1` (centres unmarked) [Compound 14, 1-(4-Chloropyridin-2-yl)-2-(2,4-difluorophenyl)-1,1-difluoro-3-(1H-tetrazol-1-yl)propan-2-ol] was run?
A: 1.5 to 4 µg/mL (≈ 3.87 to 10.3 µM)

Q: How did the MIC turn out when `OC(Cn1cnnn1)(c1ccc(F)cc1F)C(F)(F)c1ccc(C(F)(F)F)cn1` (centres unmarked) [Compound 19, 2-(2,4-Difluorophenyl)-1,1-difluoro-3-(1H-tetrazol-1-yl)-1-(5-(trifluoromethyl)pyridin-2-yl)propan-2-ol] was run?
A: 1.5 to 4 µg/mL (≈ 3.56 to 9.49 µM)

Q: With `OC(Cn1cnnn1)(c1ccc(F)cc1F)C(F)(F)c1cccc(Br)n1` (centres unmarked) [Compound 20, 1-(6-Bromopyridin-2-yl)-2-(2,4-difluorophenyl)-1,1-difluoro-3-(1H-tetrazol-1-yl)propan-2-ol] as the compound, how does the MIC read?
A: 1.5 to 4 µg/mL (≈ 3.47 to 9.26 µM)

Q: Which MIC does the source give for `OC(Cn1cnnn1)(c1cc(F)ccc1F)C(F)(F)c1ccc(Br)cn1` (centres unmarked) [Compound 21, 1-(5-Bromopyridin-2-yl)-2-(2,5-difluorophenyl)-1,1-difluoro-3-(1H-tetrazol-1-yl)propan-2-ol] here?
A: > 4 µg/mL

Q: Which MIC does the source give for `OC(Cn1cnnn1)(c1ccc(C(F)(F)F)cc1F)C(F)(F)c1ccc(Br)cn1` (centres unmarked) [Compound 23, 1-(5-Bromopyridin-2-yl)-1,1-difluoro-2-(2-fluoro-4-(trifluoromethyl)phenyl)-3-(1H-tetrazol-1-yl)propan-2-ol] here?
A: 1.5 to 4 µg/mL (≈ 3.11 to 8.3 µM)

Q: With `OC(Cn1cnnn1)(c1ccc(F)cc1F)C(F)(F)c1cc(Br)ccn1` (centres unmarked) [Compound 24, 1-(4-Bromopyridin-2-yl)-2-(2,4-difluorophenyl)-1,1-difluoro-3-(1H-tetrazol-1-yl)propan-2-ol] as the compound, how does the MIC read?
A: 1.5 to 4 µg/mL (≈ 3.47 to 9.26 µM)

Q: Which MIC does the source give for `OC(Cn1cnnn1)(c1ccc(F)cc1F)C(F)(F)c1ccc(-c2ccc(C(F)(F)F)nc2)cn1` (centres unmarked) [Compound 35, 2-(2,4-Difluorophenyl)-1,1-difluoro-3-(1H-tetrazol-1-yl)-1-(6′-(trifluoromethyl)-[3,3′-bipyridin]-6-yl)propan-2-ol] here?
A: 1.5 to 4 µg/mL (≈ 3.01 to 8.03 µM)

Q: For `COc1ncc(-c2ccc(C(F)(F)C(O)(Cn3cnnn3)c3ccc(F)cc3F)nc2)cn1` (centres unmarked) [Compound 37, 2-(2,4-Difluorophenyl)-1,1-difluoro-1-(5-(2-methoxypyrimidin-5-yl)pyridin-2-yl)-3-(1H-tetrazol-1-yl)propan-2-ol], which MIC is on record?
A: 1.5 to 4 µg/mL (≈ 3.25 to 8.67 µM)

Q: Which MIC does the source give for `COC(=O)CSc1ccc(C(F)(F)C(O)(Cn2cnnn2)c2ccc(F)cc2F)nc1` (centres unmarked) [Compound 41, Methyl 2-((6-(2-(2,4-difluorophenyl)-1,1-difluoro-2-hydroxy-3-(1H-tetrazol-1-yl)propyl)pyridin-3-yl)thio)acetate] here?
A: > 4 µg/mL

Q: With `OC(Cn1cnnn1)(c1ccc(F)cc1F)C(F)(F)c1ccc(/C=C/Cn2cnnn2)cn1` (centres unmarked) [Compound 42, (E)-1-(5-(3-(1H-Tetrazol-1-yl)prop-1-en-1-yl)pyridin-2-yl)-2-(2,4-difluorophenyl)-1,1-difluoro-3-(1H-tetrazol-1-yl)propan-2-ol] as the compound, how does the MIC read?
A: > 4 µg/mL

Q: With `OC/C=C/c1ccc(C(F)(F)C(O)(Cn2cnnn2)c2ccc(F)cc2F)nc1` (centres unmarked) [Compound 43, (E)-3-(6-(2-(2,4-Difluorophenyl)-1,1-difluoro-2-hydroxy-3-(1H-tetrazol-1-yl)propyl)pyridin-3-yl)prop-2-en-1-ol] as the compound, how does the MIC read?
A: 1.5 to 4 µg/mL (≈ 3.66 to 9.77 µM)

Q: For `OCCCc1ccc(C(F)(F)C(O)(Cn2cnnn2)c2ccc(F)cc2F)nc1` (centres unmarked) [Compound 44, 3-(6-(2-(2,4-Difluorophenyl)-1,1-difluoro-2-hydroxy-3-(1H-tetrazol-1-yl)propyl)pyridin-3-yl)propan-1-ol], which MIC is on record?
A: 1.5 to 4 µg/mL (≈ 3.65 to 9.72 µM)

Q: Which MIC does the source give for `CC(O)/C=C/c1ccc(C(F)(F)C(O)(Cn2cnnn2)c2ccc(F)cc2F)nc1` (centres unmarked) [Compound 46, (E)-4-(6-(2-(2,4-Difluorophenyl)-1,1-difluoro-2-hydroxy-3-(1H-tetrazol-1-yl)propyl)pyridin-3-yl)but-3-en-2-ol] here?
A: 1.5 to 4 µg/mL (≈ 3.54 to 9.45 µM)

Q: For `CC(O)CCc1ccc(C(F)(F)C(O)(Cn2cnnn2)c2ccc(F)cc2F)nc1` (centres unmarked) [Compound 47, 4-(6-(2-(2,4-Difluorophenyl)-1,1-difluoro-2-hydroxy-3-(1H-tetrazol-1-yl)propyl)pyridin-3-yl)butan-2-ol], which MIC is on record?
A: 1.5 to 4 µg/mL (≈ 3.53 to 9.4 µM)

Q: With `COC/C=C/c1ccc(C(F)(F)C(O)(Cn2cnnn2)c2ccc(F)cc2F)nc1` (centres unmarked) [Compound 48, (E)-2-(2,4-Difluorophenyl)-1,1-difluoro-1-(5-(3-methoxyprop-1-en-1-yl)pyridin-2-yl)-3-(1H-tetrazol-1-yl)propan-2-ol] as the compound, how does the MIC read?
A: 1.5 µg/mL (≈ 3.54 µM)

Q: Which MIC does the source give for `COC/C=C\c1ccc(C(F)(F)C(O)(Cn2cnnn2)c2ccc(F)cc2F)nc1` (centres unmarked) [Compound 49, (Z)-2-(2,4-Difluorophenyl)-1,1-difluoro-1-(5-(3-methoxyprop-1-en-1-yl)pyridin-2-yl)-3-(1H-tetrazol-1-yl)propan-2-ol] here?
A: ≤ 0.5 µg/mL

Q: For `COCCCc1ccc(C(F)(F)C(O)(Cn2cnnn2)c2ccc(F)cc2F)nc1` (centres unmarked) [Compound 50, 2-(2,4-Difluorophenyl)-1,1-difluoro-1-(5-(3-methoxypropyl)pyridin-2-yl)-3-(1H-tetrazol-1-yl)propan-2-ol], which MIC is on record?
A: 1.5 µg/mL (≈ 3.53 µM)

Q: Which MIC does the source give for `CC(C)OCCCc1ccc(C(F)(F)C(O)(Cn2cnnn2)c2ccc(F)cc2F)nc1` (centres unmarked) [Compound 55, 2-(2,4-Difluorophenyl)-1,1-difluoro-1-(5-(3-isopropoxypropyl)pyridin-2-yl)-3-(1H-tetrazol-1-yl)propan-2-ol] here?
A: ≤ 0.5 µg/mL

Q: `OC(c1ccc(C(F)(F)C(O)(Cn2cnnn2)c2ccc(F)cc2F)nc1)C(F)(F)F` (centres unmarked) [Compound 56, (2-(2,4-Difluorophenyl)-1,1-difluoro-3-(1H-tetrazol-1-yl)-1-(5-(2,2,2-trifluoro-1-hydroxyethyl)pyridin-2-yl)propan-2-ol)] was tested. Which MIC did it give?
A: > 4 µg/mL

Q: For `OC(Cn1cnnn1)(c1ccc(F)cc1F)C(F)(F)c1ccc(-c2cnc(Cl)nc2)cn1` (centres unmarked) [Compound 57, 1-(5-(2-Chloropyrimidin-5-yl)pyridin-2-yl)-2-(2,4-difluorophenyl)-1,1-difluoro-3-(1H-tetrazol-1-yl)propan-2-ol], which MIC is on record?
A: > 4 µg/mL

Q: With `OC(c1cncnc1)(c1ccc(F)cc1F)C(F)(F)c1ccc(Br)cn1` (centres unmarked) [Compound 58, 2-(5-Bromopyridin-2-yl)-1-(2,4-difluorophenyl)-2,2-difluoro-1-(pyrimidin-5-yl)ethanol] as the compound, how does the MIC read?
A: 1.5 µg/mL (≈ 3.5 µM)

Q: For `C=CCc1ccc(C(F)(F)C(O)(Cn2cnnn2)c2ccc(F)cc2F)nc1` (centres unmarked) [Compound 61, 1-(5-Allylpyridin-2-yl)-2-(2,4-difluorophenyl)-1,1-difluoro-3-(1H-tetrazol-1-yl)propan-2-ol], which MIC is on record?
A: 1.5 to 4 µg/mL (≈ 3.81 to 10.2 µM)
